According to paper PMC4425855, “Novel pantothenate derivatives for anti-malarial chemotherapy” (Malaria Journal, 2015):
Like-named read-outs stand apart in the source and are kept apart here.

Key:
[1] = tested on: asexual NF54 strain P. falciparum; assay: Plasmodium falciparum asexual blood stages proliferation assay with SYBR Green read-out; type: cell-based; settings: for IC50 / anti-malarial activity (in words): compound alone, 10% human serum; for IC50: NF54 asexual blood stages, 72 hours, relative to DHA control, read-out: Anti-malarial activity IC50; for anti-malarial activity (in words): highest concentration tested 100 μM; for change of anti-malarial potency upon vanin inhibition: combined with 5 μM of vanin inhibitor CXP14.1-060
Method: The asexual stages of the NF54 strain P. falciparum were cultured as previously described, utilizing a shaker system with automated media change twice a day, parasites were kept in continuous culture within adapted Erlenmeyer flasks. Erythrocytes were refreshed every two or three days to adjust haematocrit to 5% and parasitaemia to 0.5%. Human erythrocytes (blood type A) were obtained from healthy blood donors, with no history of malaria. Culture media consisted of RPMI 1640 with HEPES [5.94 g/l, hypoxanthine [0.05 g/l], 10% (v/v) pooled human serum (blood type A) obtained similarly to erythrocytes, and 0,2% (w/v) sodium bicarbonate. Temperature was set to 37°C and a low oxygen gas mixture was constantly flushed over the culture maintaining a stable atmosphere of 3% O2, 4% CO2, and 93% N2.
A non-synchronous asexual NF54 strain P. falciparum culture was adjusted to a parasitaemia of 0.5-1% and a haematocrit of 1-5%. The compound dilution curves were prepared in dimethylsulphoxide (DMSO) from 100 mM to 10 μM at half/log step dilutions. The established anti-malarial dihydroartemisinin (DHA) was used as a positive control and diluted in DMSO from 1 mM to 100 nM at half/log step dilutions. The DMSO dilutions were 500-fold diluted in growth medium to yield a final DMSO concentration of 0.2% (v/v), and final compound concentrations from 200 μM to 20 nM (2 μM to 200 pM for DHA). Higher concentrations for the experimental compounds would not have been possible to achieve due to limitations in final DMSO concentration (0.1% v/v). Fifty μl of each compound dilution was combined with 50 μl of parasite culture in a black, clear-bottomed or entirely black 96-well plate. The outermost wells were filled with sterile water to prevent evaporation. DHA at a concentration of 1 μM and 0.1% DMSO (negative control) were used to determine the assay window. The 96-well plates were incubated for 72 hours in a candle jar at 37°C. Read-out was done using the DNA-marker SYBR Green as described previously. All assays were conducted at least in triplicate.
When combining two compounds in the same well the conditions were otherwise similar to the single compound assays, however the final DMSO concentration was 0.2%, which was also adjusted for the positive and negative controls and was not found to cause differences in results obtained with single compounds in assay containing 0.1% DMSO. The pantothenamide phenethyl-Pan was combined with a 10^−7 to 10^−5 M concentration curve of CXP14.1-060; the other pantothenamides were combined only with a 5 μM concentration of the same vanin inhibitor. The pantothenone vanin inhibitor RR8 was additionally combined with 20 μM, 6.3 μM, 2.0 μM, and 0.6 μM of pantothenate to explore potential competition for the same molecular target in P. falciparum. All assays were conducted at least in triplicate.
Statistical analyses were performed using GraphPad Prism 5. This includes producing inhibition curves, normalizing them to percentage of inhibition, calculation of IC50 values, correlation coefficients (Spearman non-parametric correlation), and Schild analyses. The IC50 is the concentration of the compound in question at which the compound reaches 50% inhibition relative to the DHA control curve, and is calculated using the interpolate function in GraphPad Prism 5.

[2] = tested on: P. falciparum; parameters: method as in PMID 23405100; settings: 'aged' medium; cited from earlier work
[3] = target: T1, vanin enzymatic activity in human serum (Homo sapiens, UniProt O95497); assay: Vanin/pantetheinase activity assay with AMC substrate and fluorescence readout; type: biochemical
T1 sequence (O95497 22-491): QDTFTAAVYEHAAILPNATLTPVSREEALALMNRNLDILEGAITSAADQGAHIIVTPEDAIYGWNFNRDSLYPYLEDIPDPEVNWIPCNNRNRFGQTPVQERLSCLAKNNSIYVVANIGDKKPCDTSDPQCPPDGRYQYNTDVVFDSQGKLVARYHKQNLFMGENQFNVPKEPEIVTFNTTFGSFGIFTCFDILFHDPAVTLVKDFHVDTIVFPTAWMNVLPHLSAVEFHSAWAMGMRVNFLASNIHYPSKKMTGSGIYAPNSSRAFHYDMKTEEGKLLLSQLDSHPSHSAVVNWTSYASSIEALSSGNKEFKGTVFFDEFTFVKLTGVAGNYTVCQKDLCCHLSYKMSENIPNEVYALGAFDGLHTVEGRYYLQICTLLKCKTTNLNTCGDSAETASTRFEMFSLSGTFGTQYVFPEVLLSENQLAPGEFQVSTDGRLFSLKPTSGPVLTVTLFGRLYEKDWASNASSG

[4] = Plasmodium falciparum, NF54, 72 h

| Structure (SMILES) | IC50 [1, 4] | anti-malarial activity (in words) [1] | further results |
| --- | --- | --- | --- |
| C=CCCC(=O)CCNC(=O)[C@H](O)C(C)(C)CO [RR2] | 2.6 µM | – | – |
| CC(C)(CO)[C@@H](O)C(=O)NCCC(=O)c1ccccc1 [SN 12,601] | 6.1 µM | moderate activity | – |
| CCCCCCCCCNC(=O)CCNC(=O)[C@H](O)C(C)(C)CO [N9-Pan] | ~15 µM | – | change of anti-malarial potency upon vanin inhibition [1]: not increased; IC50 [1]: 14.6 µM |
| CC(C)(CO)[C@@H](O)C(=O)NCCC(O)Cc1ccccc1 (stereo partly shown) [CXP14.1-034] | 24.1 µM | – | – |
| CC(C)(CO)[C@@H](O)C(=O)NCCC(=O)NCCc1ccccc1 [Phenethyl-Pan] | ≥ 50 µM | – | IC50 [1]: 98.2 µM; efficacy of parasite growth inhibition ([1]; in the presence of 10 μM of vanin inhibitor CXP14.1-060, comparable to DHA): full inhibition of parasite growth; IC50 [2]: 0.02 µM |
| CC(C)(CO)[C@@H](O)C(=O)NCCC(=O)CCCc1ccccc1 [RR8] | 2.2 µM | – | slope of the line in the Schild Plot ([1]; RR8 dilution curve combined with 20 μM, 6.3 μM, 2.0 μM and 0.6 μM of pantothenate): 1.087 ± 0.089; shift of IC50 on addition of pantothenate ([1]; addition of increasing concentrations of pantothenate): increase in the IC50 |
| CCCCCCCNC(=O)CCNC(=O)[C@H](O)C(C)(C)CO [N7-Pan] | ≥ 50 µM | – | change of anti-malarial potency upon vanin inhibition [1]: increased; IC50 [1]: 79 µM |
| CC(C)(C)c1ccc(CC(=O)CCNC(=O)[C@H](O)C(C)(C)CO)cc1 [CXP14.1-060] | > 100 µM | no anti-malarial activity | potency against human vanins (in words) [3]: nanomolar potency |
| CC(C)(CO)[C@@H](O)C(=O)NCCCO [Pantothenol] | > 100 µM | no anti-malarial activity | – |
| CC(C)(CO)[C@@H](O)C(=O)NCCC(=O)CCc1ccccc1 [RR7] | 7.7 µM | – | – |
| CCCCCNC(=O)CCNC(=O)[C@H](O)C(C)(C)CO [N5-Pan] | ≥ 50 µM | – | change of anti-malarial potency upon vanin inhibition [1]: increased; IC50 [1]: 45.1 µM |
| CC(C)(CO)[C@@H](O)C(=O)NCCS(=O)(=O)Nc1ccc(Cl)cc1 [SN 14,622] | 7.4 µM | moderate activity | – |
| CC(C)(CO)[C@@H](O)C(=O)NCCS(=O)(=O)Nc1ccccc1 [SN 14,621] | 33.6 µM | moderate activity | – |
| CC(C)(CO)[C@@H](O)C(=O)N/C=C/C(=O)O [CJ-15,801] | > 100 µM | poor inhibitor of P. falciparum growth | – |
| C[C@H]1[C@@H](O)O[C@@H]2O[C@@]3(C)CC[C@H]4[C@H](C)CC[C@@H]1[C@@]24OO3 [DHA, dihydroartemisinin] | – | – | change of anti-malarial potency upon vanin inhibition [1]: did not change; Anti-malarial IC50 (in words) ([1]; reference compound): low nanomolar range |
